Reference: PubChem BioAssay (NCI)
Values joined by “and” are separate entries in the source; they are usually repeats but may differ in a detail not shown here. Equal entries are not always repeated.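 Compound exposure: 48 hours, 5 concentrations, 96-well plates. Abbreviation: GI50, concentration required for 50% inhibition of growth. TGI: total growth inhibition.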

What was measured:
Test in all cases: inhibition of tumour cell growth, NCI panel, 48 h
IGROV1 ovarian = tested on: IGROV1 ovarian
NCI-H23 lung = tested on: NCI-H23 lung
ACHN renal = tested on: ACHN renal
T-47D breast = tested on: T-47D breast
CAKI-1 renal = tested on: CAKI-1 renal
NCI-H522 lung = tested on: NCI-H522 lung
COLO 205 colon = tested on: COLO 205 colon
HT29 colon = tested on: HT29 colon
BT-549 breast = tested on: BT-549 breast
SNB-75 CNS = tested on: SNB-75 CNS

SMILES	GI50 (IGROV1 ovarian)	TGI (IGROV1 ovarian)	GI50 (NCI-H23 lung)	TGI (NCI-H23 lung)	GI50 (ACHN renal)	TGI (ACHN renal)	GI50 (T-47D breast)	TGI (T-47D breast)	GI50 (CAKI-1 renal)	TGI (CAKI-1 renal)	GI50 (NCI-H522 lung)	TGI (NCI-H522 lung)	GI50 (COLO 205 colon)	TGI (COLO 205 colon)	GI50 (HT29 colon)	TGI (HT29 colon)	GI50 (BT-549 breast)	TGI (BT-549 breast)	GI50 (SNB-75 CNS)	TGI (SNB-75 CNS)
COc1cc(Nc2ccnc(NCCCNc3ccnc4cc(Cl)ccc34)n2)cc(OC)c1	2.23 µM	5.73 µM	2.67 µM	10.2 µM	1.8 µM	3.53 µM	1.89 µM	4.81 µM	1.62 µM	3.26 µM	1.8 µM	3.78 µM	1.38 µM	2.9 µM	1.33 µM	3.62 µM	1.79 µM	4.42 µM	1.31 µM	2.58 µM
COc1ccc2c(c1)C(=O)c1c-2c(Nc2ccc(Cl)cc2)nc2ccccc12	10.7 µM	52.1 µM	13.6 µM	50.3 µM	4.23 µM	16.3 µM	17.8 µM	> 100 µM	20.4 µM	> 100 µM	10.1 µM	45.5 µM	34.8 µM	> 100 µM	27.5 µM	> 100 µM	8.46 µM	27.7 µM	4.27 µM	22.8 µM
O=C(O)c1cccc(N=Nc2c(S(=O)(=O)O)ccc3c2C(=O)c2ccccc2C3=O)c1O		> 100 µM		> 100 µM		> 100 µM		> 100 µM		> 100 µM		> 100 µM		> 100 µM		> 100 µM		> 100 µM		> 100 µM
CCNC(=O)c1cc2c(-c3cc(C(C)(C)O)ccc3Oc3c(C)cc(F)cc3C)cn(C)c(=O)c2[nH]1	1.39 µM	11.2 µM	1.89 µM	10.7 µM	2.15 µM	12.1 µM	1.08 µM	18 µM	0.875 µM	13.2 µM	1.76 µM	14.2 µM	0.507 µM	2.84 µM	1.12 µM	15 µM	2.01 µM	11.4 µM	0.108 µM	12.8 µM
Nc1nc(-c2ccc(F)cc2)c(-c2ccc3ncccc3n2)s1	5.44 µM	> 20.9 µM	15.6 µM	> 25 µM	8.33 µM	> 25 µM	4.32 µM	> 25 µM	9.27 µM	> 25 µM	8.31 µM	> 25 µM	> 25 µM	> 25 µM	16.3 µM	> 25 µM	16.1 µM	> 25 µM	5.04 µM	> 25 µM
COC(=O)C1=C(C)NC(C)=C(C(=O)OC)C1/C=C(Cl)/C=C/c1ccccc1	18.2 µM	43.8 µM	21.3 µM	41.6 µM	24.6 µM	76 µM	42.9 µM	> 100 µM	20.7 µM	49.3 µM	21.7 µM	72 µM	30.9 µM	75.6 µM	18.9 µM	44.9 µM	21.6 µM	55.7 µM	20 µM	54.8 µM
COc1ccc(OC)c(/C=C(/C)[N+](=O)[O-])c1	2.97 µM	8.39 µM	1.83 µM	4.52 µM	1.77 µM	3.29 µM	1.16 µM	2.87 µM	1.29 µM	2.77 µM	1.93 µM	3.64 µM	1.92 µM	3.63 µM	2.56 µM	5.2 µM	5.4 µM	18.5 µM	4.73 µM	16 µM
COc1cc(C2=C(C#Cc3ccccc3)COC2=O)cc(OC)c1OC		> 100 µM	5.51 µM	12.8 µM	1.8 µM	8.16 µM	13.3 µM	> 100 µM	20.3 µM	> 100 µM	3.01 µM	> 33.7 µM	4.89 µM	> 94.6 µM	3.02 µM	> 100 µM	3.26 µM	63.1 µM	4.98 µM	> 100 µM
Cn1ccnc1C(=O)/C=C/c1ccccc1	2.66 µM	14 µM	3.76 µM	25.4 µM	4.53 µM	20.3 µM	2.78 µM	7.35 µM	3.88 µM	19 µM	3.38 µM	14.9 µM	5.38 µM	18 µM	3.31 µM	11.2 µM	3.63 µM	8.48 µM	2.55 µM	6.54 µM
COC(=O)CCCC(=O)O		> 100 µM		> 100 µM		> 100 µM		> 100 µM		> 100 µM		> 100 µM		> 100 µM		> 100 µM		> 100 µM		> 100 µM
CC(=Nc1ccccc1)C1=C(O)C(Cc2ccccc2)NC1=O (stereo not drawn)	0.0651 µM	> 100 µM	0.0669 µM	> 100 µM	0.0625 µM	> 100 µM	> 100 µM	> 100 µM	0.0299 µM	> 76.4 µM	0.0216 µM	0.0645 µM	0.0279 µM	0.0824 µM	0.0331 µM	0.151 µM	0.0578 µM	0.501 µM	0.0246 µM	0.0788 µM
COc1cc(OC)c(/C=C/c2cnc3ccccc3n2)c(OC)c1		> 10 µM		> 10 µM		> 10 µM		> 10 µM		> 10 µM		> 10 µM		> 10 µM		> 10 µM		> 10 µM		> 10 µM
CCCCS(=O)(=O)CCC(N)C(=O)O (stereo not drawn)		> 100 µM		> 100 µM		> 100 µM		> 100 µM		> 100 µM		> 100 µM		> 100 µM		> 100 µM		> 100 µM		> 100 µM
NC(=O)c1ccc2nc(-c3ccc(Oc4ccc(Cl)cc4)cc3)[nH]c2c1	30.9 µM and 15.9 µM	75 µM and 36.2 µM	67.5 µM and 13.5 µM	75 µM and 32.7 µM	13.9 µM and 14.4 µM	75 µM and 30.2 µM		> 75 µM and 20.7 µM	6.4 µM and 16.5 µM	39.6 µM and 49.8 µM	18.9 µM and 19.9 µM	75 µM and 75.2 µM	22.3 µM and 20.8 µM	75 µM and 38.9 µM	21.6 µM and 12.3 µM	75 µM and 28.1 µM	18 µM and 12.9 µM	67.1 µM and 28.2 µM	37 µM and 18.3 µM	75 µM and 38.5 µM
